Values after ≈ are worked out from the molar mass of the structure shown. Active and inactive are the calls of the source. No cut-off for these calls is given here.
Columns and labels:
A-431 [1] = assay: cells; assay type: ADME, cell-based; settings: Homo sapiens
HCC827 [2] = assay: cells; assay type: functional, cell-based; settings: Homo sapiens
NCI-H1975 [3] = assay: cells; assay type: functional, cell-based; settings: Homo sapiens
A549 [4] = assay: Antiproliferative activity against human A549 cells harboring KRAS-G12S mutant at 30 uM incubated for 96 hrs measured on day 5 by CellTiterGlo assay; assay type: cell-based; settings: a549, 96 h
[5] = biological target: Epidermal growth factor receptor (Homo sapiens, UniProt P00533)
[6] = biological target: Epidermal growth factor receptor (Homo sapiens, UniProt P00533, L858R)
[7] = biological target: Epidermal growth factor receptor (Homo sapiens, UniProt P00533, L858R/T790M)
A549 [8] = assay: cells; assay type: ADME, cell-based; settings: Homo sapiens
A-431 [9] = assay: Antiproliferative activity against human A431 cells expressing wild type EGFR at 30 uM incubated for 96 hrs measured on day 5 by CellTiterGlo assay; assay type: cell-based; settings: a-431, 96 h
NCI-H1975 [10] = assay: Antiproliferative activity against human NCI-H1975 cells harboring EGFR-L858R/T790M double mutant at 30 uM incubated for 96 hrs measured on day 5 by CellTiterGlo assay; assay type: functional, cell-based
[11] = Permeability of the compound at 500 uM incubated for 20 hrs by PAMPA; assay type: physicochemical
[12] = Apparent permeability across apical to basolateral side in human Caco2 cells at 5 uM incubated for 2 hrs; assay type: ADME, cell-based, Caco-2; settings: for Papp A→B at 2 h, 5 µM: Caco-2
[13] = Apparent permeability across basolateral to apical side in human Caco2 cells at 5 uM incubated for 2 hrs; assay type: ADME, cell-based, Caco-2; settings: for Papp B→A at 2 h, 5 µM: Caco-2
[14] = Metabolic stability in human plasma at 5 uM incubated for 1 hr by LC-MS method; assay type: ADME, cell-free; settings: read-out: Stability
[15] = Metabolic stability in mouse plasma at 5 uM incubated for 1 hr by LC-MS method; assay type: ADME, cell-free; settings: read-out: Stability
[16] = Fraction unbound in mouse 100% plasma at 5 uM incubated for 6 hrs by LC-MS method; assay type: ADME, cell-free
[17] = Kinetic solubility in Hepes buffer at 500 uM at pH 7.4 after 90 mins; assay type: physicochemical; settings: read-out: Kinetic_solubility
in vitro [18] = settings: mouse, liver microsomes
in vitro [19] = settings: human, liver microsomes
[20] = tested on: Epidermal growth factor receptor (Homo sapiens), P00533 [L858R,T790M]; assay: Covalent binding affinity to human recombinant GST-tagged EGFR L858R/T790M double mutant expressed in baculovirus expression system by mass spectrometry
HCC827 [21] = assay: Antiproliferative activity against human HCC827 cells harboring EGFR-delE746_A750 mutant at 30 uM incubated for 96 hrs measured on day 5 by CellTiterGlo assay; assay type: functional, cell-based

Row | SMILES | EC50 (A-431 [1]) [nM] | EC50 (HCC827 [2]) [nM] | EC50 (NCI-H1975 [3]) [nM] | Activity (A549 [4]) | IC50 [5] [nM] | IC50 [6] [nM] | IC50 [7] [nM] | EC50 (A549 [8]) [nM] | further results
1 | C=CC(=O)N1CCC[C@@H](n2nc(-c3cccc(F)c3)c3c(N)ncnc32)C1 | 11700 | 70 | 3370 | Non-Toxic | 130 | 10 | 230 | – | –
2 | C=CC(=O)N1CCC[C@@H](n2nc(C#CC3CCCC3)c3c(N)ncnc32)C1 | 10900 | 1150 | 8270 | – | 750 | 60 | 1400 | 27100 | –
3 | C=CC(=O)N1CCC[C@@H](n2ncc3c(N)ncnc32)C1 | – | 9900 | – | Non-Toxic | 6900 | 2500 | 1600 | – | Activity (A-431 [9]): Non-Toxic; Activity (NCI-H1975 [10]): inactive
4 | C=CC(=O)Nc1cc(Nc2nccc(-c3cn(C)c4ccccc34)n2)c(OC)cc1N(C)CCN(C)C [OSIMERTINIB] | – | […] | […] | – | – | – | – | […] | permeability [11]: 112%; Papp A→B at 2 h, 5 µM [12]: […]; Papp B→A at 2 h, 5 µM [13]: […]; remaining at 1 h, 5 µM [14]: […]; remaining at 1 h, 5 µM [15]: […]; fraction unbound at 6 h, 5 µM [16]: 0.03; solubility kinetic at 1.5 h, 500 µM [17]: 265 µM (≈ 132 µg/mL); microsomal CLint at 50 min, 3 µM (in vitro [18]): […]; microsomal CLint at 50 min, 3 µM (in vitro [19]): 4.1 µL/min/mg
5 | CCC(=O)N1CCC[C@@H](n2nc(-c3cccc(F)c3)c3c(N)ncnc32)C1 | – | 22300 | – | Non-Toxic | > 10000 | 3400 | > 10000 | – | Activity (A-431 [9]): Non-Toxic; Activity (NCI-H1975 [10]): inactive
6 | CN(C)C/C=C/C(=O)N1CCC[C@@H](n2nc(-c3cccc(C(F)(F)F)c3)c3c(N)ncnc32)C1 | 13700 | 6390 | 20600 | Non-Toxic | 7300 | 1000 | 6100 | – | –
7 | C=CC(=O)Nc1cccc(Nc2nc(Nc3ccc(N4CCN(C(C)=O)CC4)cc3OC)ncc2C(F)(F)F)c1 [ROCILETINIB] | – | 45 | 100 | – | – | – | – | – | permeability [11]: 88%; Papp A→B at 2 h, 5 µM [12]: 0.05 ×10⁻⁶ cm/s; Papp B→A at 2 h, 5 µM [13]: 0.068 ×10⁻⁶ cm/s; remaining at 1 h, 5 µM [14]: 78%; remaining at 1 h, 5 µM [15]: 75%; fraction unbound at 6 h, 5 µM [16]: 0.01; solubility kinetic at 1.5 h, 500 µM [17]: 10 µM (≈ 5.56 µg/mL); microsomal CLint at 50 min, 3 µM (in vitro [18]): 81 µL/min/mg; microsomal CLint at 50 min, 3 µM (in vitro [19]): 5.1 µL/min/mg
8 | C=CC(=O)N1CCC[C@@H](n2nc(-c3ccc(N(C)C)c4ccccc34)c3c(N)ncnc32)C1 | 24500 | 2130 | 2670 | Non-Toxic | 810 | 270 | 210 | – | –
9 | CN(C)C/C=C/C(=O)N1CCC[C@@H](n2nc(-c3ccccc3)c3c(N)ncnc32)C1 | 29800 | 1190 | 29900 | Non-Toxic | 3000 | 220 | 6600 | – | –
10 | C=CC(=O)N1CCC[C@@H](n2nc(-c3ccc(F)cc3)c3c(N)ncnc32)C1 | – | – | – | – | 130 | 30 | 280 | – | –
11 | C=CC(=O)N1CCC[C@@H](n2nc(-c3cccc4ccccc34)c3c(N)ncnc32)C1 | 29400 | 500 | 490 | Non-Toxic | 60 | – | 2 | – | permeability [11]: 82%; remaining at 1 h, 5 µM [14]: 100%; remaining at 1 h, 5 µM [15]: 90%; fraction unbound at 6 h, 5 µM [16]: 0.15; solubility kinetic at 1.5 h, 500 µM [17]: 38 µM (≈ 15.1 µg/mL); Activity [20]: Active; microsomal CLint at 50 min, 3 µM (in vitro [18]): 2770 µL/min/mg; microsomal CLint at 50 min, 3 µM (in vitro [19]): 770 µL/min/mg
12 | C=CC(=O)N1CCC[C@@H](n2nc(C#CCC3CCCC3)c3c(N)ncnc32)C1 | 8770 | 3150 | 6930 | – | 750 | 120 | 920 | 19900 | –
13 | C=CC(=O)N1CCC[C@@H](n2nc(-c3cccc(C(F)(F)F)c3)c3c(N)ncnc32)C1 | 16000 | 650 | 4160 | – | – | 30 | 220 | 22200 | permeability [11]: 76%; remaining at 1 h, 5 µM [14]: 96%; remaining at 1 h, 5 µM [15]: 99%; fraction unbound at 6 h, 5 µM [16]: 0.09; solubility kinetic at 1.5 h, 500 µM [17]: 427 µM (≈ 178 µg/mL); microsomal CLint at 50 min, 3 µM (in vitro [18]): 2770 µL/min/mg; microsomal CLint at 50 min, 3 µM (in vitro [19]): 578 µL/min/mg
14 | C=CC(=O)N1CCC[C@@H](n2nc(C3CC3)c3c(N)ncnc32)C1 | 28100 | 310 | 5830 | Non-Toxic | 700 | 110 | 220 | – | –
15 | C=CC(=O)N1CCC[C@@H](n2nc(-c3cnc4[nH]ccc4c3)c3c(N)ncnc32)C1 | 1390 | < 14 | 280 | – | 10 | – | 3 | 3450 | permeability [11]: 27%; remaining at 1 h, 5 µM [14]: 98%; remaining at 1 h, 5 µM [15]: 96%; fraction unbound at 6 h, 5 µM [16]: 0.37; solubility kinetic at 1.5 h, 500 µM [17]: 457 µM (≈ 178 µg/mL); microsomal CLint at 50 min, 3 µM (in vitro [18]): 495 µL/min/mg; microsomal CLint at 50 min, 3 µM (in vitro [19]): 108 µL/min/mg
16 | CCC(=O)N1CCC[C@@H](n2nc(-c3ccc(F)cc3)c3c(N)ncnc32)C1 | – | 25900 | – | Non-Toxic | > 10000 | 5000 | > 10000 | – | Activity (A-431 [9]): Non-Toxic; Activity (NCI-H1975 [10]): inactive
17 | C=CC(=O)Nc1cccc(Oc2nc(Nc3ccc(N4CCN(C)CC4)cc3OC)ncc2Cl)c1 | – | 20 | 90 | – | – | – | – | 3990 | –
18 | C=CC(=O)N1CCC[C@@H](n2nc(-c3ccc(C(F)(F)F)cc3)c3c(N)ncnc32)C1 | 8870 | 160 | 1380 | Non-Toxic | 60 | 60 | 270 | – | –
19 | CCC(=O)N1CCC[C@@H](n2nc(-c3cccc(C(F)(F)F)c3)c3c(N)ncnc32)C1 | – | – | – | Non-Toxic | > 10000 | > 10000 | > 10000 | – | Activity (A-431 [9]): Non-Toxic; Activity (HCC827 [21]): inactive; Activity (NCI-H1975 [10]): inactive
20 | C=CC(=O)N1CCC[C@@H](n2nc(-c3ccc(O)cc3)c3c(N)ncnc32)C1 | 4170 | 70 | 1840 | – | – | – | – | 20000 | –
21 | CCC(=O)N1CCC[C@@H](n2nc(-c3ccccc3)c3c(N)ncnc32)C1 | – | – | – | Non-Toxic | 7300 | 4700 | > 10000 | – | Activity (A-431 [9]): Non-Toxic; Activity (HCC827 [21]): inactive; Activity (NCI-H1975 [10]): inactive
22 | CCC(=O)N1CCC[C@@H](n2nc(-c3ccc(C(F)(F)F)cc3)c3c(N)ncnc32)C1 | – | 23600 | – | Non-Toxic | 6500 | 5900 | > 10000 | – | Activity (A-431 [9]): Non-Toxic; Activity (NCI-H1975 [10]): inactive
23 | C#Cc1nn([C@@H]2CCCN(C(=O)C=C)C2)c2ncnc(N)c12 | 29600 | 2050 | 16200 | – | 1500 | 960 | 690 | 28300 | –
24 | CN(C)C/C=C/C(=O)Nc1cc2c(Nc3ccc(F)c(Cl)c3)ncnc2cc1O[C@H]1CCOC1 [AFATINIB] | 200 | < 14 | 600 | – | – | – | – | 1490 | –
25 | C=CC(=O)N1CCC[C@@H](n2nc(Cc3ccccc3)c3c(N)ncnc32)C1 | 19900 | 150 | 690 | Non-Toxic | 20 | 3 | 10 | – | –
26 | C=CC(=O)N1CCC[C@@H](n2nc(-c3ccccc3)c3c(N)ncnc32)C1 | 12700 | 70 | 3670 | – | 140 | 10 | 240 | 21700 | permeability [11]: 59%; remaining at 1 h, 5 µM [14]: 97%; remaining at 1 h, 5 µM [15]: 91%; fraction unbound at 6 h, 5 µM [16]: 0.33; solubility kinetic at 1.5 h, 500 µM [17]: 461 µM (≈ 161 µg/mL); microsomal CLint at 50 min, 3 µM (in vitro [18]): 924 µL/min/mg; microsomal CLint at 50 min, 3 µM (in vitro [19]): 122 µL/min/mg
27 | C=CC(=O)N1CCC[C@@H](n2nc(-c3ccc(F)c4ccccc34)c3c(N)ncnc32)C1 | 12800 | 430 | 360 | Non-Toxic | – | – | – | – | –
28 | C=CC(=O)N1CCC[C@@H](n2nc(-c3ccc(Oc4ccccc4)cc3)c3c(N)ncnc32)C1 [IBRUTINIB] | 2380 | 450 | 640 | Non-Toxic | – | – | – | – | permeability [11]: 38%; Papp ([12]; caco-2, 2 h, 5 µM): 40 ×10⁻⁸ cm/s; Papp ([13]; caco-2, 2 h, 5 µM): 0.9 ×10⁻⁸ cm/s; remaining at 1 h, 5 µM [14]: 80%; remaining at 1 h, 5 µM [15]: 96%; fraction unbound at 6 h, 5 µM [16]: 0.01; solubility kinetic at 1.5 h, 500 µM [17]: 57 µM (≈ 25.1 µg/mL)

— ChEMBL document CHEMBL4038351, “Structure-Guided Development of Covalent and Mutant-Selective Pyrazolopyrimidines to Target T790M Drug Resistance in Epidermal Growth Factor Receptor” (J Med Chem, 2017)
